Reference: ChEMBL document CHEMBL1121754 (J Med Chem, 1981)

Experiments:
[1] = Partition coefficient (logP); type: physicochemical; conditions: octanol/water
[2] = target: 5-hydroxytryptamine receptor 2B (Rattus norvegicus, UniProt P30994); experiment: Affinity against 5-hydroxytryptamine 2B receptor in the isolated rat stomach fundus; type: tissue-based; conditions: read-out: pA2 (converted)
Oryctolagus cuniculus = organism: Oryctolagus cuniculus; experiment: Hyperthermic potency in rabbit relative to DOM; type: functional
Homo sapiens = organism: Homo sapiens; experiment: Human hallucinogenic activity relative to mescaline; type: functional
[3] = Equilibrium constant for DNB complex formation; parameters: unit not given here

Sequence of 5-hydroxytryptamine receptor 2B (P30994 whole entry): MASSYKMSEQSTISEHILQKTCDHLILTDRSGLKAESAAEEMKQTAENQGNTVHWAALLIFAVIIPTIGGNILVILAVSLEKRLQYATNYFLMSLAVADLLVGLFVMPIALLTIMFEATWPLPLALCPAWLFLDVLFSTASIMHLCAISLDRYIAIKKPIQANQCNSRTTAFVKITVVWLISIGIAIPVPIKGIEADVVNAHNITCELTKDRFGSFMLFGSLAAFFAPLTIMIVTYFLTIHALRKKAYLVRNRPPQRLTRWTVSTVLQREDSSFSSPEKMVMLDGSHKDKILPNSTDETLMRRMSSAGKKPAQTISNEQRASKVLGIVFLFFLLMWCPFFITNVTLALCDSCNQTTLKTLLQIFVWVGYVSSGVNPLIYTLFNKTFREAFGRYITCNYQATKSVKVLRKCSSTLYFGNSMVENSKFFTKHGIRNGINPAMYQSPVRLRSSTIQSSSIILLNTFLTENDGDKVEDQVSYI

Structure (SMILES) | logP ([1]; read-out: logP) | Kb [2] | Relative activity (Oryctolagus cuniculus) | Relative activity (Homo sapiens) | KDNB [3] | logP [1]
COc1cc(C)c(CC(C)N)cc1OC (stereo not drawn) | 1.66 | 1380 nM | 0.5 | – | – | –
COc1ccc(CC(C)N)cc1 (stereo not drawn) [PARA-METHOXYAMPHETAMINE] | 1.77 | 6920 nM | – | 4 | 1.02 | –
COc1cc(CC(C)N)c(OC)cc1Br (stereo not drawn) [BROLAMFETAMINE] | 2.58 | – | – | – | – | 2.54
COc1cccc(CC(C)N)c1 (stereo not drawn) | – | 1200 nM | – | – | 0.96 | –
COc1cc(OC)c(CC(C)N)cc1C (stereo not drawn) | 2.31 | 2450 nM | 0.9 | – | – | –
COc1cc(OC)c(CC(C)N)c(OC)c1 (stereo not drawn) | 1.57 | 525 nM | 3.1 | 10 | 2.09 | –
COc1cc(CC(C)N)c(SC)cc1OC (stereo not drawn) | 1.71 | – | 1.7 | – | – | –
COc1cc(CC(C)N)cc(OC)c1OC (stereo not drawn) | 1.48 | 2510 nM | 3.6 | 2.2 | 3.14 | –
COc1cccc(OC)c1CC(C)N (stereo not drawn) | – | 8130 nM | – | – | 1.49 | –
COc1ccc(OC)c(CC(C)N)c1 (stereo not drawn) | 1.88 | – | – | – | – | 1.72
CC(N)Cc1ccc2c(c1)OCO2 (stereo not drawn) [TENAMFETAMINE] | 1.63 | – | – | – | 0.68 | –
COc1ccc(CC(C)N)c(OC)c1 (stereo not drawn) | 1.75 | 2510 nM | 2.5 | 5 | 1.32 | –
COc1cc(SC)c(OC)cc1CC(C)N (stereo not drawn) | 2.17 | – | 53.9 | 50 | – | –
COc1cc(Br)c(CC(C)N)cc1OC (stereo not drawn) | 1.96 | 1780 nM | 3.4 | – | – | –
COc1cc(CC(C)N)c(OC)cc1C (stereo not drawn) [DOM] | 2.08 | 75.9 nM | 100 | 80 | – | 2.24
COc1cc(OC)c(OC)cc1CC(C)N (stereo not drawn) | 1.74 | 155 nM | 11.8 | 17 | 1.7 | 1.1
CC(N)Cc1ccccc1 (stereo not drawn) | – | – | – | – | 0.55 | –
COc1cc(OC)c(CC(C)N)cc1Br (stereo not drawn) | 2.61 | – | 2.3 | 4 | – | –
COc1cc(OC)c(SC)cc1CC(C)N (stereo not drawn) | 2.22 | 1700 nM | 2.8 | 1 | – | –
COc1ccc(CC(C)N)c(OC)c1OC (stereo not drawn) | 1.36 | 8510 nM | <<0.3 | <2 | 1.7 | –
COc1ccc(CC(C)N)cc1OC (stereo not drawn) | 1 | 3550 nM | <<0.3 | <1 | 1.95 | 1.2
